Experimental data taken from PMC4529466, “Intradermal insulin infusion achieves faster insulin action than subcutaneous infusion for 3-day wear” (Drug Delivery and Translational Research, 2015).

Tested on: blood glucose
Assay: Postprandial blood glucose pharmacodynamics after meal bolus, 3-day ID vs SC infusion
Format: in vivo, human (T1DM patients)
Settings: ID; for BGavg0–1 / BGmax0–1 / ΔAUC-BG0–1 / ΔBGmax0–1 / BGavg0–1.5 / BGmax0–1.5 / ΔAUC-BG0–1.5 / ΔBGmax0–1.5 / BGavg0–2 / BGmax0–2 / ΔAUC-BG0–2 / ΔBGmax0–2 / BGavg0–4 / BGmax0–4 / ΔAUC-BG0–4 / ΔBGmax0–4 / BG1 / ΔBG1 / BG1.5 / ΔBG1.5 / BG2 / ΔBG2 / BG4 / ΔBG4: mean ± SD; for BG1 / ΔBG1: at 1 h; for BG1.5 / ΔBG1.5: at 1.5 h; for BG2 / ΔBG2: at 2 h; for BG4 / ΔBG4: at 4 h
Description: This was a single center, open-label, two-period crossover study, randomized by infusion order, in T1DM patients on continuous subcutaneous insulin infusion (CSII). The protocol was approved by an independent ethics committee (Ethikkommission der Ärztekammer Nordrhein, Düsseldorf, Germany), appropriate regulatory bodies (German Federal Institute for Drugs and Medical Devices (BfArM)), and conducted in compliance with good clinical practice (GCP), the Declaration of Helsinki, and applicable regulatory requirements.
The study was completed over a multi-week period consisting of three study visits: a screening visit (V1) and two interventional visits (V2 and V3). After establishing eligibility and enrollment, patients received treatment during two interventional visits: one SC and one ID basal/bolus infusion of insulin aspart (NovoRapid® U-100, Novo Nordisk, Copenhagen, Denmark) administered over 3 days in a randomized order.
Individual meal bolus doses were determined based on patient self-reported insulin to carbohydrate ratios and insulin sensitivity, historical self-reported insulin usage for meal coverage, and clinician review and adjustment of insulin usage during the in-clinic BG stabilization period the evening prior to the first morning meal. Basal insulin infusion rates were initiated based on the patient’s known daily delivery profile and could be adjusted by the clinician to maintain levels within 70–160 mg/dL according to a predetermined sliding scale and hourly changes in glycemia. A continuous glucose monitor (Seven Plus®, DexCom Inc., San Diego, CA) calibrated per manufacturer’s recommendations was applied to continuously monitor glycemia as a safety measure, in addition to periodic blood sampling for BG determination.
After maintaining targeted blood glucose range during the preceding night, bolus insulin doses were administered via the respective infusion catheter prior to standardized breakfast and lunch test meals on each of the three treatment days. Each meal insulin bolus was calculated based on the patient’s insulin sensitivity and previous hours change in BG per sliding scale then delivered immediately prior to breakfast (t = 0 min) and lunch (t = 360 min) consumption. Breakfast was a high glycemic index (60 g carbohydrates) solid meal, and lunch was a mixed meal based on the individual’s calculated daily energy intake and equivalent in caloric composition by day. Breakfast and lunch meals were consumed within 15 min followed by serial blood sampling with BG monitoring for a period of 6 and 4 h, respectively. Patients were asked to remain sedentary for 2 h after meals. Identical study procedures were utilized for the remaining dosing visit days (Fig. 2).
To assess insulin absorption kinetics and glycemic response, blood samples for measurements of insulin aspart and blood glucose in serum were drawn at predefined time points throughout dosing visits. Serial samples for safety BG determination, but not PK analysis, were obtained at a minimum every 2 h. Meal PK/PD analysis samples were acquired immediately pre-bolus and for 4–6 h post-bolus for breakfast and lunch meals, with a higher frequency during the first 2 h to capture insulin and BG peak levels {Post-bolus breakfast time points (min): 0, 10, 15, 20, 25, 30, 35, 40, 45, 50, 55, 60, 65, 70, 80, 90, 120, 150, 180, 210, 240, 300, 330, 360; Post-bolus lunch time points (min): 0, 10, 20, 30, 40, 50, 60, 70, 80, 90, 120, 180, 240, 300}. Sampling times were based on previous clinical study experience for bolus microneedle insulin delivery and had increased sampling frequency in the first 90 min post-delivery to capture the rapid insulin peaks from microneedle ID delivery. Blood samples for evening meal and basal period PK assessment could not be obtained due to daily blood draw volume limits for patient safety. Serum insulin aspart was measured by a third party laboratory (IKFE GmbH, Mainz, Germany) using a validated insulin assay (Invitron ELISA kit). […]

[1] = 0–1 h, Days 1–3 combined, all test meals, n = 150–156
[2] = 0–1 h, across all study days and meals
[3] = 0–1.5 h, Days 1–3 combined, all test meals, n = 150–156
[4] = 0–1.5 h, across all study days and meals
[5] = 0–2 h, Days 1–3 combined, all test meals, n = 150–156
[6] = 0–2 h, across all study days and meals
[7] = 0–4 h, Days 1–3 combined, all test meals, n = 150–156
[8] = Days 1–3 combined, all test meals, n = 150–156

For insulin aspart, the “BGavg0–1” value (0–1 h, Day 1, across meals) was 135 ± 45.9 mg/dL, the “BGmax0–1” value (0–1 h, Day 1, across meals) was 159 ± 53.1 mg/dL and the “ΔAUC-BG0–1” value (0–1 h, Day 1, across meals) was 17.2 ± 22.3 mg·h/dL. For the same substance, the “ΔBGmax0–1” value (0–1 h, Day 1, across meals) was 41.3 ± 32.1 mg/dL, the “BGavg0–1” value (0–1 h, Day 2, across meals) was 138 ± 37.4 mg/dL and the “BGmax0–1” value (0–1 h, Day 2, across meals) was 162 ± 43.0 mg/dL. For the same substance, the “ΔAUC-BG0–1” value (0–1 h, Day 2, across meals) was 18.7 ± 22.0 mg·h/dL, the “ΔBGmax0–1” value (0–1 h, Day 2, across meals) was 43.1 ± 30.2 mg/dL and the “BGavg0–1” value (0–1 h, Day 3, across meals) was 136 ± 37.3 mg/dL. The “BGmax0–1” value (0–1 h, Day 3, across meals) was 162 ± 41.5 mg/dL, the “ΔAUC-BG0–1” value (0–1 h, Day 3, across meals) was 18.5 ± 19.2 mg·h/dL and the “ΔBGmax0–1” value (0–1 h, Day 3, across meals) was 44.2 ± 28.1 mg/dL. The “BGavg0–1” value [1] was 136 ± 40.5 mg/dL, the “BGmax0–1” value [1] was 161 ± 46.2 mg/dL and the “ΔAUC-BG0–1” value [1] was 18.1 ± 21.2 mg·h/dL. The “ΔBGmax0–1” value [1] was 42.8 ± 30.1 mg/dL, the “Intra-subject variability of BGavg” value [2] was 26.3 %CV and the “Intra-subject variability of BGmax” value [2] was 25.2 %CV. For the same substance, the “BGavg0–1.5” value (0–1.5 h, Day 1, across meals) was 137 ± 42.1 mg/dL, the “BGmax0–1.5” value (0–1.5 h, Day 1, across meals) was 160 ± 46.8 mg/dL and the “ΔAUC-BG0–1.5” value (0–1.5 h, Day 1, across meals) was 32.4 ± 41.7 mg·h/dL. For the same substance, the “ΔBGmax0–1.5” value (0–1.5 h, Day 1, across meals) was 45.0 ± 34.5 mg/dL, the “BGavg0–1.5” value (0–1.5 h, Day 2, across meals) was 144 ± 39.9 mg/dL and the “BGmax0–1.5” value (0–1.5 h, Day 2, across meals) was 169 ± 45.6 mg/dL. For the same substance, the “ΔAUC-BG0–1.5” value (0–1.5 h, Day 2, across meals) was 36.8 ± 40.8 mg·h/dL, the “ΔBGmax0–1.5” value (0–1.5 h, Day 2, across meals) was 49.5 ± 33.5 mg/dL and the “BGavg0–1.5” value (0–1.5 h, Day 3, across meals) was 143 ± 40.2 mg/dL. For the same substance, the “BGmax0–1.5” value (0–1.5 h, Day 3, across meals) was 172 ± 45.0 mg/dL, the “ΔAUC-BG0–1.5” value (0–1.5 h, Day 3, across meals) was 39.3 ± 36.8 mg·h/dL and the “ΔBGmax0–1.5” value (0–1.5 h, Day 3, across meals) was 54.8 ± 34.2 mg/dL. The “BGavg0–1.5” value [3] was 141 ± 40.6 mg/dL, the “BGmax0–1.5” value [3] was 167 ± 45.8 mg/dL and the “ΔAUC-BG0–1.5” value [3] was 36.0 ± 39.8 mg·h/dL. For the same substance, the “ΔBGmax0–1.5” value [3] was 49.5 ± 34.1 mg/dL, the “Intra-subject variability of BGavg” value [4] was 25.6 %CV and the “Intra-subject variability of BGmax” value [4] was 24.5 %CV. For the same substance, the “BGavg0–2” value (0–2 h, Day 1, across meals) was 139 ± 43.8 mg/dL, the “BGmax0–2” value (0–2 h, Day 1, across meals) was 165 ± 47.8 mg/dL and the “ΔAUC-BG0–2” value (0–2 h, Day 1, across meals) was 47.8 ± 63.1 mg·h/dL. The “ΔBGmax0–2” value (0–2 h, Day 1, across meals) was 49.4 ± 36.7 mg/dL, the “BGavg0–2” value (0–2 h, Day 2, across meals) was 146 ± 41.9 mg/dL and the “BGmax0–2” value (0–2 h, Day 2, across meals) was 171 ± 46.5 mg/dL. The “ΔAUC-BG0–2” value (0–2 h, Day 2, across meals) was 53.9 ± 61.9 mg·h/dL, the “ΔBGmax0–2” value (0–2 h, Day 2, across meals) was 52.2 ± 33.7 mg/dL and the “BGavg0–2” value (0–2 h, Day 3, across meals) was 148 ± 41.8 mg/dL. The “BGmax0–2” value (0–2 h, Day 3, across meals) was 176 ± 44.9 mg/dL, the “ΔAUC-BG0–2” value (0–2 h, Day 3, across meals) was 62.8 ± 56.3 mg·h/dL and the “ΔBGmax0–2” value (0–2 h, Day 3, across meals) was 59.5 ± 34.9 mg/dL. For the same substance, the “BGavg0–2” value [5] was 144 ± 42.4 mg/dL, the “BGmax0–2” value [5] was 170 ± 46.4 mg/dL and the “ΔAUC-BG0–2” value [5] was 54.5 ± 60.6 mg·h/dL. For the same substance, the “ΔBGmax0–2” value [5] was 53.5 ± 35.2 mg/dL, the “Intra-subject variability of BGavg” value [6] was 25.9 %CV and the “Intra-subject variability of BGmax” value [6] was 23.8 %CV. For the same substance, the “BGavg0–4” value (0–4 h, Day 1, across meals) was 141 ± 44.0 mg/dL, the “BGmax0–4” value (0–4 h, Day 1, across meals) was 178 ± 49.1 mg/dL and the “ΔAUC-BG0–4” value (0–4 h, Day 1, across meals) was 105 ± 148 mg·h/dL. The “ΔBGmax0–4” value (0–4 h, Day 1, across meals) was 64.0 ± 43.6 mg/dL, the “BGavg0–4” value (0–4 h, Day 2, across meals) was 148 ± 41.3 mg/dL and the “BGmax0–4” value (0–4 h, Day 2, across meals) was 186 ± 43.2 mg/dL. The “ΔAUC-BG0–4” value (0–4 h, Day 2, across meals) was 120 ± 140 mg·h/dL, the “ΔBGmax0–4” value (0–4 h, Day 2, across meals) was 69.4 ± 36.8 mg/dL and the “BGavg0–4” value (0–4 h, Day 3, across meals) was 156 ± 45.0 mg/dL. For the same substance, the “BGmax0–4” value (0–4 h, Day 3, across meals) was 188 ± 49.8 mg/dL, the “ΔAUC-BG0–4” value (0–4 h, Day 3, across meals) was 156 ± 140 mg·h/dL and the “ΔBGmax0–4” value (0–4 h, Day 3, across meals) was 70.4 ± 42.2 mg/dL. For the same substance, the “BGavg0–4” value [7] was 148 ± 43.6 mg/dL, the “BGmax0–4” value [7] was 184 ± 47.4 mg/dL and the “ΔAUC-BG0–4” value [7] was 126 ± 144 mg·h/dL. For the same substance, the “ΔBGmax0–4” value [7] was 67.8 ± 40.8 mg/dL, the “Intra-subject variability of BGmax” value (0–4 h, across all study days and meals) was 21.1 %CV and the BG1 (Day 1, across meals) was 151 ± 56.0 mg/dL. It also gave a ΔBG1 (Day 1, across meals) of 33.3 ± 38.2 mg/dL, a BG1 (Day 2, across meals) of 155 ± 45.8 mg/dL and a ΔBG1 (Day 2, across meals) of 35.8 ± 35.4 mg/dL. The BG1 (Day 3, across meals) was 156 ± 45.2 mg/dL, the ΔBG1 (Day 3, across meals) was 38.2 ± 32.9 mg/dL and the BG1 [8] was 154 ± 49.3 mg/dL. It also gave a ΔBG1 [8] of 35.6 ± 35.5 mg/dL, a BG1.5 (Day 1, across meals) of 146 ± 52.2 mg/dL and a ΔBG1.5 (Day 1, across meals) of 31.0 ± 44.4 mg/dL. It also gave a BG1.5 (Day 2, across meals) of 155 ± 51.4 mg/dL, a ΔBG1.5 (Day 2, across meals) of 35.8 ± 44.4 mg/dL and a BG1.5 (Day 3, across meals) of 163 ± 51.3 mg/dL. For the same substance, the ΔBG1.5 (Day 3, across meals) was 45.7 ± 41.2 mg/dL, the BG1.5 [8] was 154 ± 51.8 mg/dL and the ΔBG1.5 [8] was 37.2 ± 43.6 mg/dL. It also gave a BG2 (Day 1, across meals) of 145 ± 54.5 mg/dL, a ΔBG2 (Day 1, across meals) of 30.2 ± 48.5 mg/dL and a BG2 (Day 2, across meals) of 152 ± 51.9 mg/dL. The ΔBG2 (Day 2, across meals) was 33.1 ± 46.1 mg/dL, the BG2 (Day 3, across meals) was 165 ± 50.5 mg/dL and the ΔBG2 (Day 3, across meals) was 48.0 ± 43.3 mg/dL. It also gave a BG2 [8] of 154 ± 52.7 mg/dL, a ΔBG2 [8] of 36.7 ± 46.5 mg/dL and a BG4 (Day 1, across meals) of 145 ± 52.1 mg/dL. It also gave a ΔBG4 (Day 1, across meals) of 29.3 ± 54.1 mg/dL, a BG4 (Day 2, across meals) of 147 ± 55.5 mg/dL and a ΔBG4 (Day 2, across meals) of 28.0 ± 55.7 mg/dL. It also gave a BG4 (Day 3, across meals) of 160 ± 60.1 mg/dL, a ΔBG4 (Day 3, across meals) of 43.6 ± 54.8 mg/dL and a BG4 [8] of 150 ± 55.9 mg/dL. The ΔBG4 [8] was 33.3 ± 54.9 mg/dL, the “BG at 1 h” value (p = 0.0121 vs SC) was 154 and the “Intra-subject variability of BG” value (time 1 h, across all study days and meals) was 29.1 %CV. For the same substance, the “Intra-subject variability of BG” value (time 1.5 h, across all study days and meals) was 31.5 %CV and the “Intra-subject variability of ΔBG” value (time 2 h, across all study days and meals) was 90.2 %CV.
